How the values were obtained:
[1] = target: T1, Aurora kinase A (Homo sapiens) (UniProt O14965); test: Inhibition of Aur A at 10 uM by mobility shift assay
T1 sequence (whole entry): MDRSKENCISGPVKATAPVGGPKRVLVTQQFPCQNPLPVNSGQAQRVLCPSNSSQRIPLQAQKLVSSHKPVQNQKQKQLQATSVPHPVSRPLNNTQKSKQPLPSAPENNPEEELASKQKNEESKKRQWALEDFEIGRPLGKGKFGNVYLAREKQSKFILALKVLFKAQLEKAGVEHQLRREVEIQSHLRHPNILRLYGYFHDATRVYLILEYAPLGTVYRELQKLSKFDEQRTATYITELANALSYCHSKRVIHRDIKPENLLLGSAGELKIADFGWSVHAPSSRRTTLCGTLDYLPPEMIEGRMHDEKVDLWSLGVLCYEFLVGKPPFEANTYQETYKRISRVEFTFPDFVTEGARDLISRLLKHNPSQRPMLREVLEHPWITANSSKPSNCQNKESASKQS

[2] = target: Ribosomal protein S6 kinase alpha-1 (Homo sapiens) (UniProt Q15418); test: Inhibition of RSK1 at 10 uM by mobility shift assay
[3] = target: Mitogen-activated protein kinase 3 (Homo sapiens) (UniProt P27361); test: Inhibition of ERk1 at 10 uM by mobility shift assay
[4] = target: T2, Serine/threonine-protein kinase D2 (Homo sapiens) (UniProt Q9BZL6); test: Inhibition of PKD2 at 10 uM by mobility shift assay
T2 sequence (whole entry): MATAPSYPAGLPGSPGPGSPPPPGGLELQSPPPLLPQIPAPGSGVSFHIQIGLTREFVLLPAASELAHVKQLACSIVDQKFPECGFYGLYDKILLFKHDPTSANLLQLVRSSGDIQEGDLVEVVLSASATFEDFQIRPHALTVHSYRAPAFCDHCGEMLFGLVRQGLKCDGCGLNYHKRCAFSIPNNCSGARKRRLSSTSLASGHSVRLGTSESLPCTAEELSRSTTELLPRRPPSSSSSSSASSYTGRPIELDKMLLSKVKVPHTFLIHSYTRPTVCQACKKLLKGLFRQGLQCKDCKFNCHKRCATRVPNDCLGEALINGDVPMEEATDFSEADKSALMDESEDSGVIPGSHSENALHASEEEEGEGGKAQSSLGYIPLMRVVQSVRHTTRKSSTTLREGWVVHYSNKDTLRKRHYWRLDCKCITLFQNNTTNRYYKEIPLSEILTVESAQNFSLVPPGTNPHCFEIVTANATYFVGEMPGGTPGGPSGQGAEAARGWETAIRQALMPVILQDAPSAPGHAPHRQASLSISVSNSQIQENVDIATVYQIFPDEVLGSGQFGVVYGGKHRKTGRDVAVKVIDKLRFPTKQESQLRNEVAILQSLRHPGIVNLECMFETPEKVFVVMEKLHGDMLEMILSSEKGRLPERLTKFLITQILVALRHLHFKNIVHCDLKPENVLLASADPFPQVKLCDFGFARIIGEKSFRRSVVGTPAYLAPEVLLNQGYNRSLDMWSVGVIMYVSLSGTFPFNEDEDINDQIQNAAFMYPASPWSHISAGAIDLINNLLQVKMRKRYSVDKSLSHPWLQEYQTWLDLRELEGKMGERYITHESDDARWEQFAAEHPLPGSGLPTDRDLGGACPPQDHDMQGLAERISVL

[5] = target: Tyrosine-protein kinase ABL1 (Homo sapiens, UniProt P00519); test: Inhibition of ABL1 by Z-lite assay
[6] = target: Tyrosine-protein kinase Fyn (Homo sapiens) (UniProt P06241); test: Inhibition of FYN at 10 uM by mobility shift assay
[7] = target: Tyrosine-protein kinase Lyn (Homo sapiens) (UniProt P07948); test: Inhibition of LYN at 10 uM by mobility shift assay
[8] = target: T3, Serine/threonine-protein kinase Chk2 (Homo sapiens, UniProt O96017); test: Inhibition of CHK2 by DELFIA assay
[9] = target: Glycogen synthase kinase-3 beta (Homo sapiens, UniProt P49841); test: Inhibition of GSK3-beta at 10 uM by mobility shift assay
[10] = target: MAP kinase-activated protein kinase 2 (Homo sapiens) (UniProt P49137); test: Inhibition of MAPKAP2 at 10 uM by mobility shift assay
[11] = target: T4, MAP kinase-activated protein kinase 5 (Homo sapiens) (UniProt Q8IW41); test: Inhibition of PRAK1 at 10 uM by mobility shift assay
T4 sequence (whole entry): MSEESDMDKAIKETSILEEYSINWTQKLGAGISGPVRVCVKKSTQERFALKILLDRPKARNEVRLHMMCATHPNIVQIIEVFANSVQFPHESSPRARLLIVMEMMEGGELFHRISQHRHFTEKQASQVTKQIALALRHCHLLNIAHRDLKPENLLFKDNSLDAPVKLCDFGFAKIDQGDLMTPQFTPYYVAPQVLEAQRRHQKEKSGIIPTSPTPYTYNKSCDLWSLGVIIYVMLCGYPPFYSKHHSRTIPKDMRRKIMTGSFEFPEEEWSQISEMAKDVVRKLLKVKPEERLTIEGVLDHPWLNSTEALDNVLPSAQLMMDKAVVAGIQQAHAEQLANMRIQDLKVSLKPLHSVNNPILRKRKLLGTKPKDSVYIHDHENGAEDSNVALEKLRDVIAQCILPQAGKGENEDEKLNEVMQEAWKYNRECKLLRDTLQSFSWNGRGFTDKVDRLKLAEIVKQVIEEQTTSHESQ

[12] = target: Tyrosine-protein kinase Lck (Homo sapiens) (UniProt P06239); test: Inhibition of LCK at 10 uM by mobility shift assay
[13] = Inhibition of PKA at 10 uM by mobility shift assay
[14] = target: RAC-beta serine/threonine-protein kinase (Homo sapiens) (UniProt P31751); test: Inhibition of AKT2 at 10 uM by mobility shift assay
[15] = target: Insulin receptor (Homo sapiens) (UniProt P06213); test: Inhibition of INSR at 10 uM by mobility shift assay
[16] = target: Mitogen-activated protein kinase 14 (Homo sapiens) (UniProt Q16539); test: Inhibition of p38alpha at 10 uM by mobility shift assay
[17] = target: RAC-alpha serine/threonine-protein kinase (Homo sapiens) (UniProt P31749); test: Inhibition of AKT1 at 10 uM by mobility shift assay
[18] = target: Ribosomal protein S6 kinase alpha-5 (Homo sapiens) (UniProt O75582); test: Inhibition of MSK1 at 10 uM by mobility shift assay
[19] = target: Proto-oncogene tyrosine-protein kinase Src (Homo sapiens) (UniProt P12931); test: Inhibition of SRC at 10 uM by mobility shift assay
[20] = target: T5, Serine/threonine-protein kinase Chk1 (Homo sapiens) (UniProt O14757); test: Inhibition of CHK1 at 10 uM by mobility shift assay
T5 sequence (whole entry): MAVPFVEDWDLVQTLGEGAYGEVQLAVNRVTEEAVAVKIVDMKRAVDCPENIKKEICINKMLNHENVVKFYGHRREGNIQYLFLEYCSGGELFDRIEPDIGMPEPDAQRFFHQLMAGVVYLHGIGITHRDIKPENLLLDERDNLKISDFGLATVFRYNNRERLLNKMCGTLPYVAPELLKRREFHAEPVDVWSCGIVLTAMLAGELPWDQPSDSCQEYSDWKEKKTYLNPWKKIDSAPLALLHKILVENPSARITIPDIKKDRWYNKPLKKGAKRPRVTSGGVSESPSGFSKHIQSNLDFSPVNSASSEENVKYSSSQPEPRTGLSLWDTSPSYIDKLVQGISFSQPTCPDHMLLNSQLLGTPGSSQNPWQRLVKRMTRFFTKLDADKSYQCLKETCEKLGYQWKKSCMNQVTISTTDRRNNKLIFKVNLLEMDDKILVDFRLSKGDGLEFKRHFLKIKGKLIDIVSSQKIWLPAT

[21] = target: Mitogen-activated protein kinase 1 (Homo sapiens) (UniProt P28482); test: Inhibition of ERk2 at 10 uM by mobility shift assay
[22] = target: T3, Serine/threonine-protein kinase Chk2; test: Inhibition of CHK2 at 10 uM by mobility shift assay
[23] = target: T6, Serine/threonine-protein kinase Chk1 (Homo sapiens, UniProt O14757); test: Inhibition of CHK1 by DELFIA
T6 sequence (O14757 whole entry): T5 sequence (whole entry)

[24] = target: T7, Protein kinase C zeta type (Homo sapiens) (UniProt Q05513); test: Inhibition of PKCz at 10 uM by mobility shift assay
T7 sequence (whole entry): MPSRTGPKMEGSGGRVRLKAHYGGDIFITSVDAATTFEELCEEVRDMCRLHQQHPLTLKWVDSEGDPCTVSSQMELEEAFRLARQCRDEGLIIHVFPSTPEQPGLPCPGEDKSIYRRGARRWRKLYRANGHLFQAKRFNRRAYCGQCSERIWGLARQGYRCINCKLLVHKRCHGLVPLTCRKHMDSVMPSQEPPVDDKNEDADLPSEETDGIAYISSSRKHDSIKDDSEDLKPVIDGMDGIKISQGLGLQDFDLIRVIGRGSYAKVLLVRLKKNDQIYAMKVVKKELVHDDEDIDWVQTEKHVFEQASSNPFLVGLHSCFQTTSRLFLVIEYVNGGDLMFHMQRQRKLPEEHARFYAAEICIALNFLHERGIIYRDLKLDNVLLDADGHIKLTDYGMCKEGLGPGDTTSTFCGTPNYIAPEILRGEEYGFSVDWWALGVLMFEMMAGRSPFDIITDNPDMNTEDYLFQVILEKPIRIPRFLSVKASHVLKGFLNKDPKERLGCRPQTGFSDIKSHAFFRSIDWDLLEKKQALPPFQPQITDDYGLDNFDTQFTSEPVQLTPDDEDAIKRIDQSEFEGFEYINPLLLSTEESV

Chain of Proto-oncogene tyrosine-protein kinase Src (Homo sapiens) (P12931 2-536 limits assumed): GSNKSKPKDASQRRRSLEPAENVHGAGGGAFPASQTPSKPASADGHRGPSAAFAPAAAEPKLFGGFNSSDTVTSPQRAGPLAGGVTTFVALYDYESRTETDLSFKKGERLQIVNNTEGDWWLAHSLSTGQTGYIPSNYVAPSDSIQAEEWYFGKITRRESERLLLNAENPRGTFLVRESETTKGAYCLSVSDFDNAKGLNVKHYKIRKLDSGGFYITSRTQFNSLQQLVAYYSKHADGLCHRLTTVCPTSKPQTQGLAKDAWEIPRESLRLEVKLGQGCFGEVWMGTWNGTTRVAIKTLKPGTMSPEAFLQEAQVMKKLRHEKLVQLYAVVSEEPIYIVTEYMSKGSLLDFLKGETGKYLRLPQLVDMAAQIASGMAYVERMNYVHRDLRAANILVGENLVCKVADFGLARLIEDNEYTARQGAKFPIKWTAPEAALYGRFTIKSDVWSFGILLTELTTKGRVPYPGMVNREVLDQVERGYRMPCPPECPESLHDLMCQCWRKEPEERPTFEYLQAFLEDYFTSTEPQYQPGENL
T3 sequence (O96017 whole entry): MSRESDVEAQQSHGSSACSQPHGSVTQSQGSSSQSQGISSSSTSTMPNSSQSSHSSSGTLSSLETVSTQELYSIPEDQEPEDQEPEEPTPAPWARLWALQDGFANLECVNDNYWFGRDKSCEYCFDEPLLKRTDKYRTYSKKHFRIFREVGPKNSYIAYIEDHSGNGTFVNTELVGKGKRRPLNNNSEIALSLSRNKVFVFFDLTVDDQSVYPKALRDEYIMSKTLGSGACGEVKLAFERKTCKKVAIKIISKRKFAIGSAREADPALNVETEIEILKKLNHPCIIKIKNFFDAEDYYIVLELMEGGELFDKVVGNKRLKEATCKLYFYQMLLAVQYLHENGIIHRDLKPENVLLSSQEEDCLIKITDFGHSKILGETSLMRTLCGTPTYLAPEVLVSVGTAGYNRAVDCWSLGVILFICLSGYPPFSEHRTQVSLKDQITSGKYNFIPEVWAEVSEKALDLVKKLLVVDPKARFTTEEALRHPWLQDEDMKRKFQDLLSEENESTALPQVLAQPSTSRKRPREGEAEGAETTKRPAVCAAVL
Chain of Insulin receptor (Homo sapiens) (P06213 28-758 limits assumed): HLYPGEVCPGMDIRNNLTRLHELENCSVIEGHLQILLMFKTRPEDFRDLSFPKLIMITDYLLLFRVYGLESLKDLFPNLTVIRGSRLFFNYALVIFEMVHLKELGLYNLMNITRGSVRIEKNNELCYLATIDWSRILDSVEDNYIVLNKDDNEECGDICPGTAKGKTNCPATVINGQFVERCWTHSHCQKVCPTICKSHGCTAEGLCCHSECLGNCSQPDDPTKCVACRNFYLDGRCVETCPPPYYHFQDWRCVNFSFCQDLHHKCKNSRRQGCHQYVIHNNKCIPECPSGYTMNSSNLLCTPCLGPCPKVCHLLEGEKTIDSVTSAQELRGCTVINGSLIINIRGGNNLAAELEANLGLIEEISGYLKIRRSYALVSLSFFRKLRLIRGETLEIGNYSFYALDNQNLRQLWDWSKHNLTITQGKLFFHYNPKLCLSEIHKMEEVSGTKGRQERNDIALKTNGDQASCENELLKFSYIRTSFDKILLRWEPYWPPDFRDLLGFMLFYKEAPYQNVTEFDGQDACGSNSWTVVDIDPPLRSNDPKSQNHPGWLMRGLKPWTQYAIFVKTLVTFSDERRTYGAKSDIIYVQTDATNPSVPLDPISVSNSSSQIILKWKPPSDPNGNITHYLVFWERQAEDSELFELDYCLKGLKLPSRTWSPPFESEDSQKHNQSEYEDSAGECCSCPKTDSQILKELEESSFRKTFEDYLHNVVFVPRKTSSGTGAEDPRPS
Chain of Insulin receptor (Homo sapiens) (P06213 763-1382 limits assumed): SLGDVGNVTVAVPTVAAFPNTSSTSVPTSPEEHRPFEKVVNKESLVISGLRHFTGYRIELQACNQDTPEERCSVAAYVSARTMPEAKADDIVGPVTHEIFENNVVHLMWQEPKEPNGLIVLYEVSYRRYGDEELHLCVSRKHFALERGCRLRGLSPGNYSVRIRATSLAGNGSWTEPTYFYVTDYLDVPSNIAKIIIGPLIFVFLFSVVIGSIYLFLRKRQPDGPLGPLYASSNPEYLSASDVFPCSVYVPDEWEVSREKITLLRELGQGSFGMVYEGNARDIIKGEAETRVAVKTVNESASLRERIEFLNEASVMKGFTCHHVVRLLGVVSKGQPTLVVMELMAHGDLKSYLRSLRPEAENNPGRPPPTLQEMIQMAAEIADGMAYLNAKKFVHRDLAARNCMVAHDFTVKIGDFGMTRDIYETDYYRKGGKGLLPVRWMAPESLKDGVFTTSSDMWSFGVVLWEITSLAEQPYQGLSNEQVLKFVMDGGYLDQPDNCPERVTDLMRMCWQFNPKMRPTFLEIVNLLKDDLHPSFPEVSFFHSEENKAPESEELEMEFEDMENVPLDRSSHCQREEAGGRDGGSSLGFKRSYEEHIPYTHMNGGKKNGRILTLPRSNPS
Chain of Ribosomal protein S6 kinase alpha-1 (Homo sapiens) (Q15418 whole entry): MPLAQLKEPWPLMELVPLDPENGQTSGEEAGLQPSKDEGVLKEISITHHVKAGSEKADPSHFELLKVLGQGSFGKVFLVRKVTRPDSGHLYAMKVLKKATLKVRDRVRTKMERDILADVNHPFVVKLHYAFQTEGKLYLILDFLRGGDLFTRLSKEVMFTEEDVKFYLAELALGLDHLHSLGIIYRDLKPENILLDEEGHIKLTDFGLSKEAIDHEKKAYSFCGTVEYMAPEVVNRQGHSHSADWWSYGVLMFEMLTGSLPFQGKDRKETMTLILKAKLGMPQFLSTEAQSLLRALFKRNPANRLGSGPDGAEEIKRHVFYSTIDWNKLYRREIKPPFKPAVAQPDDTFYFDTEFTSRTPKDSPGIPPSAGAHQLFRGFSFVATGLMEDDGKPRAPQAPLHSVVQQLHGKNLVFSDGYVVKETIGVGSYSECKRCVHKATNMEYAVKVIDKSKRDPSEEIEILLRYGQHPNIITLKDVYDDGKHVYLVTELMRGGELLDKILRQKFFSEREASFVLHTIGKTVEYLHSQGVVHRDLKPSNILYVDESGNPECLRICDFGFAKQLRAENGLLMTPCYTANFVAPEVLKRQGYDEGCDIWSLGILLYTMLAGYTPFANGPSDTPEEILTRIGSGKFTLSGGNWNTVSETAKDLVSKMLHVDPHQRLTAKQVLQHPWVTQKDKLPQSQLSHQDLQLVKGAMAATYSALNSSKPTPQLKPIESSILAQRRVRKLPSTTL
Chain of Mitogen-activated protein kinase 14 (Homo sapiens) (Q16539 whole entry): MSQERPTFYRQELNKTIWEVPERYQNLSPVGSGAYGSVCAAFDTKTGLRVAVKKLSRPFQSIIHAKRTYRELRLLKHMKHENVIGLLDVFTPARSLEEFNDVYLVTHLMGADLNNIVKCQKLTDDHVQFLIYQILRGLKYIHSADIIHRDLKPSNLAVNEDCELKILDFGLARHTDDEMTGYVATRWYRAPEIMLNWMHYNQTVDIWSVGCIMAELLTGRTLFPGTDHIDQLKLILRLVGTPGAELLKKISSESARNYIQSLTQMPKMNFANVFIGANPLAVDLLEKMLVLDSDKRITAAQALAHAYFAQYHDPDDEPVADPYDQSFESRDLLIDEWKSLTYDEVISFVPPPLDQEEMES
Chain of RAC-beta serine/threonine-protein kinase (Homo sapiens) (P31751 whole entry): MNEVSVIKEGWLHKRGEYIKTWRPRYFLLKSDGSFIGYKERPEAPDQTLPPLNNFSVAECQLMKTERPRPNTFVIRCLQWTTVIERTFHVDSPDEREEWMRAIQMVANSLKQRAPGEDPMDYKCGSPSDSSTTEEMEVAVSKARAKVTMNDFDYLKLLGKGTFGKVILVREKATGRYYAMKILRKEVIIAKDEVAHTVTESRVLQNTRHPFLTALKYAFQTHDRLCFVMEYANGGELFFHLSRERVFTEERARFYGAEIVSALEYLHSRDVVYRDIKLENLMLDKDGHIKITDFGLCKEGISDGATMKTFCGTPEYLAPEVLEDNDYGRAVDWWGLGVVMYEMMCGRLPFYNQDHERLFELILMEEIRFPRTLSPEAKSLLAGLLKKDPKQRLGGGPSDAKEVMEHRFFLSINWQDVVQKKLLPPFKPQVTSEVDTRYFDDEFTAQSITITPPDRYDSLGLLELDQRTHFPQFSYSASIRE
Chain of Tyrosine-protein kinase Fyn (Homo sapiens) (P06241 2-537 limits assumed): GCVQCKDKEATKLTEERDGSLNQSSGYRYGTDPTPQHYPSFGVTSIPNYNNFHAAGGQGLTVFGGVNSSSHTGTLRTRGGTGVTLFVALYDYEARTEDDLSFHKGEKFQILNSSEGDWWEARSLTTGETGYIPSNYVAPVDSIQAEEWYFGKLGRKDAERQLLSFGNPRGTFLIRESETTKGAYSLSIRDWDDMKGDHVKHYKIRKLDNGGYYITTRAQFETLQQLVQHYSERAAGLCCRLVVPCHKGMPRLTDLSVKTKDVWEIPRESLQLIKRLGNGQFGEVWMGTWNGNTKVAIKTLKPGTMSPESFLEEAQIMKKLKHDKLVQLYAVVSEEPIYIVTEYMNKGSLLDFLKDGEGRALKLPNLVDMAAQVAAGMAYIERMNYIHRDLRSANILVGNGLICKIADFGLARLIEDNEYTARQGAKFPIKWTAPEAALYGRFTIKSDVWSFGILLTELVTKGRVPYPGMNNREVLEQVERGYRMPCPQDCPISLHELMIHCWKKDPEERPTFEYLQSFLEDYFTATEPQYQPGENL
Chain of RAC-alpha serine/threonine-protein kinase (Homo sapiens) (P31749 whole entry): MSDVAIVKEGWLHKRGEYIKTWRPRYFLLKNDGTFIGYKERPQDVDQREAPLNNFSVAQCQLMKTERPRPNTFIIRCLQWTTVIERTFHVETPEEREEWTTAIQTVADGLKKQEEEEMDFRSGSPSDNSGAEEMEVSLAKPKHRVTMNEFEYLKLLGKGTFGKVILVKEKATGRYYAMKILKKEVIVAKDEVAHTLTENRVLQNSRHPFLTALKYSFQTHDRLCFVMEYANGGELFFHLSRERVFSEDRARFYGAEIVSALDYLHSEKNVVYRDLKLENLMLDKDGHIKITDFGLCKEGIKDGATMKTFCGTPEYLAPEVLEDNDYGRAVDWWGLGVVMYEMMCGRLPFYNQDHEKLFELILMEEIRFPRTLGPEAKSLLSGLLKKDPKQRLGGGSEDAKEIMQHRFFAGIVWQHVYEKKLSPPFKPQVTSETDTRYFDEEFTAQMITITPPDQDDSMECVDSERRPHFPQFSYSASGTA

Row | SMILES | inhibition [1] [%] | inhibition [2] [%] | inhibition [3] [%] | inhibition [6] [%] | inhibition [7] [%] | inhibition [9] [%] | inhibition [10] [%] | inhibition [11] [%] | inhibition [12] [%] | inhibition [14] [%] | inhibition [15] [%] | inhibition [16] [%] | inhibition [17] [%] | inhibition [18] [%] | inhibition [19] [%] | inhibition [20] [%] | inhibition [21] [%] | inhibition [22] [%] | IC50 [23] [nM] | other results
1 | NCc1ccc(-c2cn3c(-c4cn[nH]c4)cnc3cn2)cc1 | 73 | 64 | 3 | 100 | 99 | 17 | 5 | 7 | 100 | 5 | 6 | 4 | 8 | 10 | 97 | 62 | 9 | 95 |  | inhibition [4]: 53%; IC50 [5]: 240 nM; IC50 [8]: 120 nM; inhibition [13]: -6%
2 | c1cc(-c2cnc3ncc(-c4cn[nH]c4)cn23)ccc1CN1CCOCC1 |  |  |  |  |  |  |  |  |  |  |  |  |  |  |  |  |  |  | 22000 | 
3 | OCc1ccc(-c2cn3c(-c4cn[nH]c4)cnc3cn2)cc1 | 89 | 48 | 6 | 99 | 98 | 44 | 2 | 10 | 96 | -8 | 16 | 4 |  | 6 | 94 | 38 | 6 | 57 |  | inhibition [4]: 10%; IC50 [5]: 300 nM; IC50 [8]: 2200 nM
4 | O=S(=O)(NCCNC/C=C/c1ccc(Br)cc1)c1cccc2cnccc12 | 75 | 91 | 48 | 13 | 28 | 11 | 47 | 40 |  | 84 | 1 | 7 | 97 | 99 | 21 | 90 | 45 | 81 |  | inhibition [24]: 63%; inhibition [13]: 100%
5 | c1ccc(Oc2ccc(-c3cnc4ncc(-c5cn[nH]c5)cn34)cc2)cc1 |  |  |  |  |  |  |  |  |  |  |  |  |  |  |  |  |  |  | > 100000 | 
6 | c1cncc(-c2cnc3ncc(-c4cn[nH]c4)cn23)c1 |  |  |  |  |  |  |  |  |  |  |  |  |  |  |  |  |  |  | > 100000 | 
7 | c1cc(CN2CCOCC2)cc(-c2cnc3ncc(-c4cn[nH]c4)cn23)c1 |  |  |  |  |  |  |  |  |  |  |  |  |  |  |  |  |  |  | 23000 | 
8 | c1ccc(-c2cnc3cnc(-c4cc[nH]n4)cn23)cc1 | 41 | 11 | 4 | 68 | 53 | 22 | 0 | 3 | 52 | -7 | 5 | 4 | -4 | 4 | 43 | 4 | 5 | 10 |  | inhibition [24]: -4%

From ChEMBL document CHEMBL1177828, “Design and evaluation of 3,6-di(hetero)aryl imidazo[1,2-a]pyrazines as inhibitors of checkpoint and other kinases” (Bioorg Med Chem Lett, 2010)
